Test results: PubChem BioAssay (NCI)
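Values below derive from 48-hour exposures of cells grown in 96-well plates, with endpoints linearly interpolated between the two concentrations bracketing the appropriate inhibition level. Definition used: TGI = concentration required for complete inhibition of growth.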

Key:
Test in all cases: NCI tumour cell line growth inhibition, 48 h
[1] = test system: K-562 leukemia
[2] = test system: COLO 205 colon
[3] = test system: DLD-1 colon
[4] = test system: OVCAR-3 ovarian
[5] = test system: SF-295 CNS
[6] = test system: M19-MEL melanoma
[7] = test system: CAKI-1 renal
[8] = test system: SNB-78 CNS
[9] = test system: KM20L2 colon
[10] = test system: A549 NSCLC
[11] = test system: SW-620 colon
[12] = test system: EKVX NSCLC
[13] = test system: 786-0 renal
[14] = test system: KM12 colon
[15] = test system: RPMI-8226 leukemia
[16] = test system: DMS 273 small cell lung
[17] = test system: HOP-62 NSCLC
[18] = test system: HCT-15 colon
[19] = test system: SK-MEL-28 melanoma
[20] = test system: HCC-2998 colon
[21] = test system: HL-60(TB) leukemia
[22] = test system: MALME-3M melanoma
[23] = test system: OVCAR-4 ovarian
[24] = test system: UACC-257 melanoma
[25] = test system: OVCAR-8 ovarian
[26] = test system: IGROV1 ovarian
[27] = test system: LXFL 529 NSCLC
[28] = test system: LOX IMVI melanoma
[29] = test system: HOP-92 NSCLC
[30] = test system: OVCAR-5 ovarian
[31] = test system: SNB-75 CNS
[32] = test system: ACHN renal
[33] = test system: TK-10 renal
[34] = test system: SN12C renal
[35] = test system: UACC-62 melanoma
[36] = test system: NCI-H522 lung
[37] = test system: SK-OV-3 ovarian
[38] = test system: MOLT-4 leukemia
[39] = test system: DMS 114 small cell lung
[40] = test system: CCRF-CEM leukemia
[41] = test system: SNB-19 CNS
[42] = test system: RXF 393 renal
[43] = test system: NCI-H23 lung
[44] = test system: UO-31 renal
[45] = test system: SK-MEL-5 melanoma
[46] = test system: HT29 colon
[47] = test system: SK-MEL-2 melanoma
[48] = test system: NCI-H460 lung
[49] = test system: M14 melanoma

Measured: TGI

C#CCC(O)c1ccccc1C(O)CC#C (centres undefined)
95.2 µM: [42]
> 100 µM: [1] | [2] | [3] | [4] | [5] | [6] | [7] | [8] | [9] | [10] | [11] | [12] | [13] | [14] | [15] | [16] | [17] | [18] | [19] | [20] | [21] | [22] | [23] | [24] | [25] | [26] | [27] | [28] | [29] | [30] | [31] | [32] | [33] | [34] | [35] | [36] | [37] | [38] | [39] | [40] | [41] | [43] | [44] | [45] | [46] | [47] | [48] | [49]
